Earlier results in patent publication US9744163B2, “Compositions of a polyorthoester and an aprotic solvent” (Heron Therapeutics, Inc., priority 2013, dated 2017).

SMILES: CCOC(C)=O [ethyl acetate]
- Water Miscibility (solubility in water): (8.3 g/100 ml)
